Experimental data published in BindingDB's records for doi:10.7270/Q2PC30S2 (Nmmlsc, 2010).

Biological target: Ras-related C3 botulinum toxin substrate 1 (Mus musculus, UniProt P63001)
Assay: activated Rac1 mutant nucleotide-binding inhibitors – biochemical, multiplex, GST-Rac1 beads, Bodipy-FL-GTP, flow cytometry, dose response (AID 1339)

Compound	EC50
CNC(=S)N/N=C1\C(=O)Nc2ccccc21 [1-methyl-3-[(2-oxoindol-3-yl)amino]thiourea]	91.6 µM
O=C1C([N+](=O)[O-])=Cc2oc3c(c2C1/C=N/Cc1ccccc1)CCCC3 (configuration not stated) [(1Z)-3-nitro-1-[[(phenylmethyl)amino]methylidene]-6,7,8,9-tetrahydrodibenzofuran-2-one]	5.79 µM
